Source: ChEMBL document CHEMBL3797059 (Bioorg Med Chem Lett, 2016)
One block for each compound: values may come before it. Calls of active or inactive are those of the source. No cut-off for these calls is given here.

Assays:
[1] = biological target: T1, Fibroblast growth factor receptor 2 (Homo sapiens, UniProt P21802); assay: Inhibition of recombinant FGFR2 (unknown origin) at 10 nM using (Glu,Tyr)4:1 as substrate incubated for 60 mins by ELISA
Target sequence in this assay (P21802 22-821 limits assumed): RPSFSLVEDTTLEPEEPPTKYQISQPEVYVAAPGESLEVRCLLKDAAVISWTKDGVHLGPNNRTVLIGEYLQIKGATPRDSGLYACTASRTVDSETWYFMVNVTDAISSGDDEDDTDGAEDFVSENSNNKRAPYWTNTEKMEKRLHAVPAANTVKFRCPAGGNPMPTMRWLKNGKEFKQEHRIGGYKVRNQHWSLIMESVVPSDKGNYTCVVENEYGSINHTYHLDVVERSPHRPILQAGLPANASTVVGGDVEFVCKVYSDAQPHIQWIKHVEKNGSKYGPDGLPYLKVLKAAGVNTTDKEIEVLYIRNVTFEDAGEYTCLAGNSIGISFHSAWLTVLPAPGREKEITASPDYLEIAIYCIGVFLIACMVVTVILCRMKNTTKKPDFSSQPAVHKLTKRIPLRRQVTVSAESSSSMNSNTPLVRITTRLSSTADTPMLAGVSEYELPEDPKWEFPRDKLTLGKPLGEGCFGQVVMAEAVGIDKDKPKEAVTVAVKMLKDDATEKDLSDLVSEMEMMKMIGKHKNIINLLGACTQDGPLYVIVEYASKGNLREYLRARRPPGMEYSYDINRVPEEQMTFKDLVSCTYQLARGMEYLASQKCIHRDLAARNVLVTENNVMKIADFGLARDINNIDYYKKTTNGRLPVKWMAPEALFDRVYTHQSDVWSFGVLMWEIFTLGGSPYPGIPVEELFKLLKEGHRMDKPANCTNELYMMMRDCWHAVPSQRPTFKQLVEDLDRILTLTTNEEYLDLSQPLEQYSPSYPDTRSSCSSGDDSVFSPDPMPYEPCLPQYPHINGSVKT

[2] = biological target: T1, Fibroblast growth factor receptor 2; assay: Inhibition of FGFR2 (unknown origin) at 1 nM using (Glu,Tyr)4:1 as substrate incubated for 60 mins by ELISA
Target sequence in this assay (P21802 22-821 limits assumed): as above

[3] = biological target: Vascular endothelial growth factor receptor 2 (Homo sapiens, UniProt P35968); assay: Inhibition of recombinant VEGFR2 (unknown origin) using (Glu,Tyr)4:1 as substrate incubated for 60 mins by ELISA
Sequence of Vascular endothelial growth factor receptor 2 (P35968 whole entry): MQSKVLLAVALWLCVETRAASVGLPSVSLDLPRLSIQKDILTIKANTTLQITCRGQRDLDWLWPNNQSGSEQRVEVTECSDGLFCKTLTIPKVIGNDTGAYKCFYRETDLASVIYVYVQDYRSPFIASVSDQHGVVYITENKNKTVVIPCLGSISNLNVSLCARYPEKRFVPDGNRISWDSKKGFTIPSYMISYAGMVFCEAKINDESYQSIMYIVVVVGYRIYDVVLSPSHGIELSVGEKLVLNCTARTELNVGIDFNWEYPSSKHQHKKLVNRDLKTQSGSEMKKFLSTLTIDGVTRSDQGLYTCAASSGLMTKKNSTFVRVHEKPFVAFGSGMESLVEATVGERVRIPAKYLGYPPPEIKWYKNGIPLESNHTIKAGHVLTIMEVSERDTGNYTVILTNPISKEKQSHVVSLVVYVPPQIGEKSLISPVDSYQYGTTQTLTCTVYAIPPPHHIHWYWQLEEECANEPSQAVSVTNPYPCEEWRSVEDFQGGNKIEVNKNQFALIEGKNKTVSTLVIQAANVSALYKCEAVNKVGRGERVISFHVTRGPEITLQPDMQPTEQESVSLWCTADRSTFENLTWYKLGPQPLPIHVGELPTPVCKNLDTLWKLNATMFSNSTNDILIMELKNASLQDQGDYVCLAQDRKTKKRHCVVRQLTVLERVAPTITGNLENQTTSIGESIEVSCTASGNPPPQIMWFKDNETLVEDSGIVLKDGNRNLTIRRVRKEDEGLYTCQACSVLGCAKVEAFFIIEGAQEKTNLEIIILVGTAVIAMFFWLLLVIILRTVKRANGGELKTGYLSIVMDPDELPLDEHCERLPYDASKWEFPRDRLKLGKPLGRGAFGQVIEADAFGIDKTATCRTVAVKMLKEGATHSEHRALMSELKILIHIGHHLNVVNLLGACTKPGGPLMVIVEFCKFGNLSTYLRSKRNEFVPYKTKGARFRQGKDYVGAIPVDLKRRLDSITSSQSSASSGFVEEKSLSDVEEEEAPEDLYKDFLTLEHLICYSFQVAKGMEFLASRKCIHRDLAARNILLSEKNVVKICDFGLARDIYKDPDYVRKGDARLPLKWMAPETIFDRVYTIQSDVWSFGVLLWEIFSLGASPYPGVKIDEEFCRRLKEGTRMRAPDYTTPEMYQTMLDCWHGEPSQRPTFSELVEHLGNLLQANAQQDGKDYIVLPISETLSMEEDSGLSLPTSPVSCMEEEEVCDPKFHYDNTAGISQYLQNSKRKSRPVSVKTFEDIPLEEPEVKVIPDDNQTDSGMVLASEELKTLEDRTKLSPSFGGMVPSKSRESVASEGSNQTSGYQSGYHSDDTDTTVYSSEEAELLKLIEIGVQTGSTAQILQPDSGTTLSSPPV

[4] = biological target: T1, Fibroblast growth factor receptor 2; assay: Inhibition of recombinant FGFR2 (unknown origin) using (Glu,Tyr)4:1 as substrate incubated for 60 mins by ELISA
[5] = biological target: T2, Fibroblast growth factor receptor 1 (Homo sapiens, UniProt P11362); assay: Inhibition of recombinant FGFR1 (unknown origin) using (Glu,Tyr)4:1 as substrate incubated for 60 mins by ELISA
Target sequence in this assay (P11362 whole entry): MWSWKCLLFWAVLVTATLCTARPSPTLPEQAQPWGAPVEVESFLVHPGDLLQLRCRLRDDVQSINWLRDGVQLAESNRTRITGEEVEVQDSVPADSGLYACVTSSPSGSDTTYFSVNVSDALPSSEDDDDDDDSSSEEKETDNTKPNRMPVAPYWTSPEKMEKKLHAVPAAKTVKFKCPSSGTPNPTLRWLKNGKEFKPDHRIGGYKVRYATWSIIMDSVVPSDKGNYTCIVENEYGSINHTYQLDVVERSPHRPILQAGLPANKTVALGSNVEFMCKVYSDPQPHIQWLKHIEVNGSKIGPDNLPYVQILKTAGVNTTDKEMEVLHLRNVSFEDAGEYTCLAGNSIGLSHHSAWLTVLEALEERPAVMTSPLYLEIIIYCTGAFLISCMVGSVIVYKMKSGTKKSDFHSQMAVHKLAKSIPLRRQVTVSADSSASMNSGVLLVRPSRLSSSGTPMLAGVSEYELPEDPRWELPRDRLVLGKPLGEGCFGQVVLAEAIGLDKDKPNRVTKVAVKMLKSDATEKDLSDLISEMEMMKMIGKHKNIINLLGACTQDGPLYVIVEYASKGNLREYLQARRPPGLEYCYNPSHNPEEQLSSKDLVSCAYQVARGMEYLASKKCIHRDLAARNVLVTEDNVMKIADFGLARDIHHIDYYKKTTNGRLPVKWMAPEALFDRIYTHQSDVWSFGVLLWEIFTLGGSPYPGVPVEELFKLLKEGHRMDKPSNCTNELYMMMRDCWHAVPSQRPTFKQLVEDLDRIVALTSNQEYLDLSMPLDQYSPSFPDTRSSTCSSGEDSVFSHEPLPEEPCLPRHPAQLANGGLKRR

[6] = biological target: Fibroblast growth factor receptor 3 (Homo sapiens, UniProt P22607); assay: Inhibition of recombinant FGFR3 (unknown origin) using (Glu,Tyr)4:1 as substrate incubated for 60 mins by ELISA
Sequence of Fibroblast growth factor receptor 3 (P22607 whole entry): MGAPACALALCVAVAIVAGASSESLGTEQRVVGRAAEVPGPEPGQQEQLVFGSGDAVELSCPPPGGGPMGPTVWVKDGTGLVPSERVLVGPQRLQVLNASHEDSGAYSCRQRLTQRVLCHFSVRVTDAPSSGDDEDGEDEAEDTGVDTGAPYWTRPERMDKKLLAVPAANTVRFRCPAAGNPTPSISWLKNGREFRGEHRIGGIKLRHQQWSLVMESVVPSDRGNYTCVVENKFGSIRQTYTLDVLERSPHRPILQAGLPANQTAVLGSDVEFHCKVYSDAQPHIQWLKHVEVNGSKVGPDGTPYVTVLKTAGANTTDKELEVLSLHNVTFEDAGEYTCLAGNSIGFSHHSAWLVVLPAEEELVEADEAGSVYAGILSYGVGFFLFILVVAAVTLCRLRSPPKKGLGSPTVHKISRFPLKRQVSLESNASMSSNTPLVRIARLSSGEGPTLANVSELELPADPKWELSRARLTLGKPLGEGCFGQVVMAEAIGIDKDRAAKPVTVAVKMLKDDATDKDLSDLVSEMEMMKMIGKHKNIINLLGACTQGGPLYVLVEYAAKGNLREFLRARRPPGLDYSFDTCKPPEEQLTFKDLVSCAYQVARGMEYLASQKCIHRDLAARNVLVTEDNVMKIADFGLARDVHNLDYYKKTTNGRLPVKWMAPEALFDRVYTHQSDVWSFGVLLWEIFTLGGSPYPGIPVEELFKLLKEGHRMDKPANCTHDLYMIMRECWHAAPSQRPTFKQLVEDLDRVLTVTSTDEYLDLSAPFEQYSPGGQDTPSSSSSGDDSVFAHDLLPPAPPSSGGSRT

[7] = biological target: Fibroblast growth factor receptor 4 (Homo sapiens, UniProt P22455); assay: Inhibition of recombinant FGFR4 (unknown origin) using (Glu,Tyr)4:1 as substrate incubated for 60 mins by ELISA
[8] = biological target: T2, Fibroblast growth factor receptor 1; assay: Inhibition of FGFR1 phosphorylation in human KG1 cells incubated for 2 hrs by Western blot analysis; assay type: cell-based; details: KG-1
Target sequence in this assay (P11362 22-822 limits assumed): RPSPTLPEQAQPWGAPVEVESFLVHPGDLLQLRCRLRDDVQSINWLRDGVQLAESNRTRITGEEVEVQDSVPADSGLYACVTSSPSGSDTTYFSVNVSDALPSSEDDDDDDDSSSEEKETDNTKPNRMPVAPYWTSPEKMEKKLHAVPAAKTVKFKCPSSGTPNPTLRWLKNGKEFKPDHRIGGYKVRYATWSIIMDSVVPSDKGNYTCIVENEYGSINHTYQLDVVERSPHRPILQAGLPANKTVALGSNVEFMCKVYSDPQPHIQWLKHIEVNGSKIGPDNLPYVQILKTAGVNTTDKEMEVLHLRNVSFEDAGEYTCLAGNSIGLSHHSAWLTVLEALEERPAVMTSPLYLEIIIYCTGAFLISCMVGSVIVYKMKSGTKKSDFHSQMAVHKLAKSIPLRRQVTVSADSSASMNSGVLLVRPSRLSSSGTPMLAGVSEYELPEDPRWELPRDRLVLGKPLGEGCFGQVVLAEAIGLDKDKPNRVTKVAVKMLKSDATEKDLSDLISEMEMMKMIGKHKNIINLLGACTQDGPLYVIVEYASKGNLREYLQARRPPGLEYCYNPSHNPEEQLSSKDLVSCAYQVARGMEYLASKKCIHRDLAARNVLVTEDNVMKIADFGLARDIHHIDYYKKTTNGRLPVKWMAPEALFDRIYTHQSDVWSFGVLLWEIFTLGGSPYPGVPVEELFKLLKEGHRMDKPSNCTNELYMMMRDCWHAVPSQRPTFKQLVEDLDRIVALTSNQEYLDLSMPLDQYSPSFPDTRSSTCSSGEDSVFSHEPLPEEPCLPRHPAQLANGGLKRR

[9] = biological target: T2, Fibroblast growth factor receptor 1; assay: Inhibition of FGFR1 phosphorylation in human KG1 cells assessed as reduction of phospho-PLCgamma level at 0.4 to 10 nM incubated for 2 hrs by Western blot analysis; assay type: cell-based; details: KG-1
Target sequence in this assay (P11362 22-822 limits assumed): as above

[10] = biological target: T2, Fibroblast growth factor receptor 1; assay: Inhibition of FGFR1 phosphorylation in human KG1 cells assessed as reduction of phospho-ERK level at 0.4 to 10 nM incubated for 2 hrs by Western blot analysis; assay type: cell-based; details: KG-1
Target sequence in this assay (P11362 22-822 limits assumed): as above

Compound: COc1cc(CCc2cc(Nc3ncnc4cc(OC)ccc34)n[nH]2)cc(OC)c1
inhibition [1]: 73.3%
inhibition [2]: 16.9%

Compound: COCCOc1ccc2c(Nc3cc(CCc4cc(OC)cc(OC)c4)[nH]n3)ncnc2c1
IC50 [3]: > 100 nM

Compound: CCc1nc(Nc2cc(CCc3cc(OC)cc(OC)c3)[nH]n2)c2ccc(N3CCN(CC)CC3)cc2n1
IC50 [3]: 35.8 nM

Compound: CCN1CCN(c2ccc3c(Nc4cc(CCc5cc(OC)cc(OC)c5)[nH]n4)nc(NCc4cc(C)no4)nc3c2)CC1
IC50 [4]: < 10 nM

Compound: COc1cc(CCc2cc(Nc3ncnc4cc(N5CCN6CCCCC6C5)ccc34)n[nH]2)cc(OC)c1 (stereo unspecified)
IC50 [3]: 21.5 nM
IC50 [5]: 1 nM
IC50 [6]: 5 nM
IC50 [7]: 52.7 nM
inhibition [8]: Dose-dependent effect
inhibition [9]: Active
inhibition [10]: Active

The next lines start with the values.

IC50 [3]: > 100 nM
Compound: COc1cc(CCc2cc(Nc3ncnc4cc(NCCN5CCOCC5)ccc34)n[nH]2)cc(OC)c1

IC50 [3]: 17.5 nM
Compound: CCN1CCN(c2ccc3c(Nc4cc(CCc5c(Cl)c(OC)cc(OC)c5Cl)[nH]n4)ncnc3c2)CC1

inhibition [1]: 41.8%
Compound: COc1cc(CCc2cc(Nc3ncnc4cc(N5CCN(S(=O)(=O)c6ccc(C)cc6)CC5)ccc34)n[nH]2)cc(OC)c1

inhibition [2]: 87.4%
Compound: COc1cc(CCc2cc(Nc3ncnc4cc(N5CCCCC5)ccc34)n[nH]2)cc(OC)c1
